# From publication PMC3628605, “Glucose-6-phosphate dehydrogenase regulation in the hepatopancreas of the anoxia-tolerant marine mollusc, Littorina littorea” (PeerJ, 2013)
# How the values were obtained:
# [1] = system: T1, G6PDH, hepatopancreas, 24 h anoxic (low phosphate form); test: spectrophotometric NADPH production at […] nm; assay type: biochemical, Littorina littorea; conditions: pH 8.0, 50 mM Tris-HCl, 22 °C
# T1 construct: gene G6PD; native enzyme in Sephadex G-50 filtered hepatopancreas extract of 24 h anoxic snails; low phosphate form, same gene product as P1; not purified for kinetics
# [2] = system: T2, G6PDH, hepatopancreas, aerobic control (high phosphate form); test: spectrophotometric NADPH production at […] nm; assay type: biochemical, Littorina littorea; conditions: pH 8.0, 50 mM Tris-HCl, 22 °C
# T2 construct: gene G6PD; native enzyme in Sephadex G-50 filtered hepatopancreas extract of aerobic control snails (bought at Kowloon Market, Ottawa); serine-phosphorylated, high phosphate form; not purified for kinetics
Km ([1]; optimal G6P (4 mM)),Km ([2]; optimal G6P (4 mM)),Km ([1]; optimal NADP+ (1.0 mM)),Km ([2]; optimal NADP+ (1.0 mM)),SMILES
115 ± 8 µM,117 ± 6 µM,,,NC(=O)c1ccc[n+]([C@@H]2O[C@H](COP(=O)(O)OP(=O)(O)OC[C@H]3O[C@@H](n4cnc5c(N)ncnc54)[C@H](OP(=O)(O)O)[C@@H]3O)[C@@H](O)[C@H]2O)c1 [NADP^+]
,,60 ± 3 µM,97 ± 6 µM,O=P(O)(O)OC[C@H]1OC(O)[C@H](O)[C@@H](O)[C@@H]1O (stereo partly shown) [G6P]
